In patent US20150105252A1, “SUBSTITUTED PYRAZOLES AS HERBICIDES” (E I DU PONT DE NEMOURS AND COMPANY, priority 2013, published 2015):

Assays:
chamomile = test: Test D postemergence; assay type: in vivo, Matricaria inodora; conditions: scale 0 to 100
Method in brief: (§1)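 Scores of 0 (no effect) to 100 (complete control) come from visual comparison with untreated plants 14–21 days after spraying. Applications were made pre-emergence to silt loam or post-emergence to plants 2–18 cm tall.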

buckwheat, wild = test: Test D postemergence; assay type: in vivo, Polygonum convolvulus; conditions: scale 0 to 100
Method in brief: as §1

galium = test: Test D postemergence; assay type: in vivo, Galium aparine; conditions: scale 0 to 100
Method in brief: as §1

foxtail, green = test: Test D postemergence; assay type: in vivo, Setaria viridis; conditions: scale 0 to 100
Method in brief: as §1

common waterhemp = test: Test F preemergence; assay type: in vivo, Amaranthus rudis
Method in brief: (§2)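 Visual rating 0–100 vs untreated controls (0 = no effect, 100 = complete control) after 14–21 d greenhouse. Pre: seeds in silt loam soil. Post: plants 2–18 cm, 1–4 leaf. Formulation: non-phytotoxic solvent mix + surfactant.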

arrowleaf sida = test: Test F preemergence; assay type: in vivo, Sida rhombifolia
Method in brief: as §2

kochia = test: Test D preemergence; assay type: in vivo, Kochia scoparia; conditions: scale 0 to 100
Method in brief: as §1

wheat, winter = test: Test D postemergence; assay type: in vivo, Triticum aestivum; conditions: scale 0 to 100
Method in brief: as §1

wheat, spring = test: Test D postemergence; assay type: in vivo, Triticum aestivum; conditions: scale 0 to 100
Method in brief: as §1

field bindweed = test: Test F preemergence; assay type: in vivo, Convolvulus arvensis
Method in brief: as §2

Italian ryegrass = test: Test F preemergence; assay type: in vivo, Lolium multiflorum
Method in brief: as §2

dayflower, VA = test: Test F preemergence; assay type: in vivo, Commelina virginica
Method in brief: as §2

field poppy = test: Test D postemergence; assay type: in vivo, Papaver rhoeas; conditions: scale 0 to 100
Method in brief: as §1

chickweed = test: Test D preemergence; assay type: in vivo, Stellaria media; conditions: scale 0 to 100
Method in brief: as §1

[1] = Preemergence, 16 g ai/ha, scale 0 to 100
[2] = Preemergence, 62 g ai/ha, scale 0 to 100
[3] = Preemergence, 125 g ai/ha, scale 0 to 100
[4] = preemergence, 8 g ai/ha, scale 0 to 100, 100 is complete control

CCOc1cc(C(=O)NC(C)C)nn1Cc1ccnc(C(F)(F)F)c1 [Compound 188]
Chamomile plant response rating (chamomile; Postemergence, 31 g ai/ha): 65
Chamomile plant response rating (chamomile; Postemergence, 125 g ai/ha): 70
Chamomile plant response rating (chamomile; Postemergence, 250 g ai/ha): 75
Chamomile plant response rating (chamomile; postemergence, 62 g ai/ha): 65
Buckwheat, Wild plant response rating (buckwheat, wild; Postemergence, 31 g ai/ha): 60
Buckwheat, Wild plant response rating (buckwheat, wild; Postemergence, 125 g ai/ha): 70
Buckwheat, Wild plant response rating (buckwheat, wild; Postemergence, 250 g ai/ha): 70
Buckwheat, Wild plant response rating (buckwheat, wild; postemergence, 62 g ai/ha): 60
Galium plant response rating (galium; Postemergence, 31 g ai/ha): 75
Galium plant response rating (galium; Postemergence, 125 g ai/ha): 85
Galium plant response rating (galium; Postemergence, 250 g ai/ha): 90
Galium plant response rating (galium; postemergence, 62 g ai/ha): 75
Foxtail, Green plant response rating (foxtail, green; Postemergence, 31 g ai/ha): 25
Foxtail, Green plant response rating (foxtail, green; Postemergence, 125 g ai/ha): 25
Foxtail, Green plant response rating (foxtail, green; Postemergence, 250 g ai/ha): 55
Foxtail, Green plant response rating (foxtail, green; postemergence, 62 g ai/ha): 25
Plant response rating, Common Waterhemp (common waterhemp; [1]): 100
Plant response rating, Common Waterhemp (common waterhemp; [2]): 100
Plant response rating, Common Waterhemp (common waterhemp; [3]): 100
Plant response rating, Common Waterhemp (common waterhemp; [4]): 85
Plant response rating, Arrowleaf Sida (arrowleaf sida; [1]): 0
Plant response rating, Arrowleaf Sida (arrowleaf sida; [2]): 10
Plant response rating, Arrowleaf Sida (arrowleaf sida; [3]): 20
Plant response rating, Arrowleaf Sida (arrowleaf sida; [4]): 0
Plant response rating, Kochia (kochia; 62 g ai/ha): 100
Plant response rating, Kochia (kochia; 125 g ai/ha): 100
Plant response rating, Kochia (kochia; 250 g ai/ha): 100
Wheat, Winter plant response rating (wheat, winter; Postemergence, 31 g ai/ha): 25
Wheat, Winter plant response rating (wheat, winter; Postemergence, 125 g ai/ha): 30
Wheat, Winter plant response rating (wheat, winter; Postemergence, 250 g ai/ha): 65
Wheat, Winter plant response rating (wheat, winter; postemergence, 62 g ai/ha): 25
Wheat, Spring plant response rating (wheat, spring; Postemergence, 31 g ai/ha): 10
Wheat, Spring plant response rating (wheat, spring; Postemergence, 125 g ai/ha): 15
Wheat, Spring plant response rating (wheat, spring; Postemergence, 250 g ai/ha): 40
Wheat, Spring plant response rating (wheat, spring; postemergence, 62 g ai/ha): 10
Plant response rating, Field Bindweed (field bindweed; [1]): 30
Plant response rating, Field Bindweed (field bindweed; [2]): 40
Plant response rating, Field Bindweed (field bindweed; [3]): 100
Plant response rating, Field Bindweed (field bindweed; [4]): 35
Plant response rating, Italian Ryegrass (Italian ryegrass; [2]): 70
Plant response rating, Italian Ryegrass (Italian ryegrass; [3]): 80
Plant response rating, Italian Ryegrass (Italian ryegrass; [4]): 0
Plant response rating, Dayflower, VA (dayflower, VA; [2]): 90
Plant response rating, Dayflower, VA (dayflower, VA; [3]): 100
Plant response rating, Dayflower, VA (dayflower, VA; [4]): 0
Field Poppy plant response rating (field poppy; Postemergence, 31 g ai/ha): 60
Field Poppy plant response rating (field poppy; Postemergence, 125 g ai/ha): 75
Field Poppy plant response rating (field poppy; Postemergence, 250 g ai/ha): 95
Field Poppy plant response rating (field poppy; postemergence, 62 g ai/ha): 60
Plant response rating, Chickweed (chickweed; 31 g ai/ha): 100
Plant response rating, Chickweed (chickweed; 62 g ai/ha): 100
Plant response rating, Chickweed (chickweed; 125 g ai/ha): 100
Plant response rating, Chickweed (chickweed; 250 g ai/ha): 100
